Several values for one entry are separate records, joined by “and”; a condition that tells them apart may be missing. Equal entries are not always repeated. Where two headings read alike, the source gives them in different places.
How the values were obtained:
[1] = test system: AAV-αSyn-induced male mice; assay: pS129 αSyn+ cells in SNpc, AAV-αSyn-induced mice; assay type: in vivo, mouse
From the text: Adeno-associated viruses (AAVs) expressing GFP only or αSyn (wild-type or A53T) were kindly provided by Dr. Yoon Seong Kim from the University of Central Florida. Recombinant AAV vectors were produced using modified pAAV-IRES-hrGFP (Agilent) to express wild-type and mutant human αSyn under control of the CMV promoter. Viral particles (AAV2) were produced at the University of Iowa Viral Vector Core according to standard operating procedures (https://medicine.uiowa.edu/vectorcore/). […] AAV vectors were delivered into the substantia nigra unilaterally by stereotaxic surgery.
Images were acquired using a KEYENCE microscope and quantified as the number or optical density of immunoreactive cells using ImageJ software.
The numbers of TH^+ DA neurons, NeuN^+ neurons, pS129 αSyn^+ cells in the SN and Iba-1^+ microglia in the SN and striatum were stereologically counted in six coronal sections (30 µm thickness) taken every 6th section (180 µm intervals) for each brain. The boundaries of the SN and striatum were delimited at low magnification (4X) to estimate each total area. Immunoreactive cells were counted with images taken at high magnification (×40) by a single blinded investigator. The group mean of the total number of immunoreactive cells from each brain was transformed as percentage of the number in the control group (%). For AAV-αSyn-induced mice, the group mean of the total number of cells in the ipsilateral side was transformed as a percentage of that observed in the contralateral side.

[2] = test system: mouse ventral mesencephalic (VM) primary cells; assay: Dopaminergic gene expression, qRT-PCR, primary VM cells with 6-OHDA; assay type: cell-based; conditions: for dopaminergic gene expression (in words): VM primary cells, decreased by 6-OHDA, CQ 20 µM, 4A7C-301 0.5 µM
Description: (§1) Total RNA was extracted using the GeneJET RNA Purification Kit (Thermo Fisher Scientific) and 100 ng of RNA was subjected to cDNA synthesis using Invitrogen Superscript cDNA Synthesis Kit (Invitrogen) according to the manufacturer’s protocol. qRT-PCR was performed using a CFX Connect Real-Time System (Bio-Rad) in a 20 μl volume mixture containing 2X SsoAdvanced Universal SYBR Green Supermix (Bio-Rad), 100 ng/μl of forward and reverse primers, and 1 μl of cDNA sample. Gene expression levels were quantified by the 2^∆∆CT method (Ct of target gene—Ct of glyceraldehyde-3-phosphate dehydrogenase (GAPDH). The following primers were used for qRT-PCR: TH forward: 5′-[…]-3′, reverse: 5′-[…]-3′; DAT forward: 5′-[…]-3′, reverse: 5′-[…]-3′; AADC forward: 5′-[…]-3′, reverse: 5′-[…]-3′; VMAT2 forward: 5′-[…]-3′, reverse: 5′-[…]-3′; c-Ret forward: 5′-[…]-3′, reverse: 5′-[…]-3′; TNFα forward: 5′-[…]-3′; reverse: 5′-[…]-3′; GAPDH, forward 5′-[…]-3′, reverse 5′-[…]-3′.
Briefly, dissected VM brain tissues were collected in ice-cold Dulbecco’s phosphate-buffered saline (DPBS) and then mechanically dissociated using pipettes. Thereafter, dissociated tissues were incubated in 0.05 % Trypsin-EDTA (Invitrogen) for 5 min at 37 °C. The cell suspension was plated onto glass coverslips in 48-well plates pre-coated with […] poly-L-ornithine, 5 μg/ml Fibronectin or 1 μg/ml Laminin at a density of 2.0 × 10^5 cells/cm^2 in differentiation medium (1% heat-inactivated FBS, 2 mM L-glutamine, 50X B27 supplement, 100 μM ascorbic acid and 2 μg/ml bFGF in Neurobasal media).

Nurr1-LBD = target: T1, Nurr1-LBD (Mus musculus, UniProt Q06219); assay: Luciferase reporter assay, Nurr1-LBD, SK-N-BE(2)C cells; assay type: cell-based; conditions: for Luciferase activity (fold): Fig. 1d
T1 construct: transfected with pCMV-fNurr1, pGAL-Nurr1(LBD), pGAL-Nor1(LBD) or pGAL-Nur77(LBD) and reporter construct; expressed in transfected cells; host or cells: SK-N-BE(2)C (human neuroblastoma), N27-A (rat dopaminergic), MN9D (murine dopaminergic)
From the text: Nurr1 transactivity was normalized to β-galactosidase activity.

TNFα gene = assay: LPS-induced TNFα gene expression in BV2 cells, qRT-PCR; assay type: cell-based, mouse; conditions: for Relative TNFα expression (% of control): Fig. S6, LPS; for EC50: Mus musculus, BV-2
Description: SK-N-BE(2)C human neuroblastoma, BV2 mouse microglia (ATCC), HeLa and MN9D cell lines were cultured in Dulbecco’s Modified Eagle Medium (DMEM) supplemented with 10% fetal bovine serum (FBS) and 100 U /ml penicillin and 100 μg /ml streptomycin. The murine MN9D dopaminergic cell line was kindly provided by Drs. Michael Zigmond and Juliann Jaumotte from the University of Pittsburgh. The N27-A rat dopaminergic cell line was kindly provided by Dr. Curt Freed from the University of Colorado School of Medicine. […] For transactivity assay, SK-N-BE(2)C and N27-A cell lines were transfected with pCMV-fNurr1, pGAL-Nurr1(LBD), pGAL-Nor1(LBD) or pGAL-Nur77(LBD) and reporter construct (p4xNL3-Luc for fNurr1 or p8xUAS-Luc for LBD constructs). pRSV-β-gal was co-transfected as an internal control. Cells were lysed in a lysis buffer (25 mM Tris-phosphate (pH 7.8), 2 mM DTT, 2 mM DCTA (1,2-diaminocyclohexane-N,N,N′,N′-tetraacetic acid), 10% glycerol, and 1% Triton X-100) 24 h after transfection, followed by adding firefly luciferase substrate for luminescence detection measured by a luminometer plate reader (SpectraMax®; Molecular device). Nurr1 transactivity was normalized to β-galactosidase activity. […] For Nurr1 stability determination, MN9D cells were incubated with MPP^+ (0.5 mM) for 2, 4, 8, 16, 24, and 32 h, or were transduced with lentivirus expressing GFP only or αSyn (wild-type or A53T) then harvested 24, 48 and 72 h after transduction. For autophagolysosome (APL) formation assay, HeLa and N27-A cells were transfected with mRFP-GFP-LC3 (Addgene) using Lipofectamine 2000 (Invitrogen). The medium was changed with starvation medium (Earle’s Balanced Salt Solution; EBSS) 24 h after transfection for autophagy induction.
as §1

[3] = Nurr1-LBD and full-length Nurr1, SK-N-BE(2)C cells, Fig. 1d,e
[4] = Nurr1 activation, Supplementary Table 1, values in µM

T1 sequence (Q06219 360-595 limits assumed): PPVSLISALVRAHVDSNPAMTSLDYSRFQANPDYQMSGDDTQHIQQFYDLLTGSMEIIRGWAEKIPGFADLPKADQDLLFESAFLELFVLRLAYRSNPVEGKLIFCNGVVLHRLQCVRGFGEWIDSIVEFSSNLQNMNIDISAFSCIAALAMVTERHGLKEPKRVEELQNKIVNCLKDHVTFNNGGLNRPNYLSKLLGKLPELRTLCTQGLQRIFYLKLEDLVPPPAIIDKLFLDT

## CCN1CCN(c2cc(N3CCN(CC)CC3)nc(NCCNc3ccnc4cc(Cl)ccc34)n2)CC1 [4A7C-301, N^1-(4,6-bis(4-ethylpiperazin-1-yl)pyrimidin-2-yl)-N^2-(7-chloroquinolin-4-yl)ethane-1,2-diamine]
[1]; αSynA53T-mice
  phosphorylated αSyn (αSynS129) in SN (in words): significantly reduced
[1]; αSynWT-mice
  phosphorylated αSyn (αSynS129) in SN (in words): significantly diminished
[2]; Fig. S5f/S5g, with 6-OHDA
  Relative mRNA levels (fold of Control), AADC: 1.28 fold of Control and 1.13 fold of Control and 1.203 fold of Control
  Relative mRNA levels (fold of Control), DAT: 1.197 fold of Control and 1.193 fold of Control and 1.282 fold of Control
  Relative mRNA levels (fold of Control), TH: 0.9704 fold of Control and 1 fold of Control and 1.046 fold of Control
  Relative mRNA levels (fold of Control), VMAT2: 0.9594 fold of Control and 0.8951 fold of Control and 0.9343 fold of Control
  Relative mRNA levels (fold of Control), c-Ret: 0.9509 fold of Control and 0.8338 fold of Control and 0.9285 fold of Control
[2]; Fig. S5f/S5g, without 6-OHDA
  Relative mRNA levels (fold of Control), AADC: 1.446 fold of Control and 1.683 fold of Control and 1.592 fold of Control
  Relative mRNA levels (fold of Control), DAT: 2.907 fold of Control and 2.949 fold of Control and 3.159 fold of Control
  Relative mRNA levels (fold of Control), TH: 2.273 fold of Control and 2.094 fold of Control and 2.264 fold of Control
  Relative mRNA levels (fold of Control), VMAT2: 1.573 fold of Control and 1.37 fold of Control and 1.5834 fold of Control
  Relative mRNA levels (fold of Control), c-Ret: 1.652 fold of Control and 1.7584 fold of Control and 1.7573 fold of Control
[2]; Fig. S5h/S5i, with 6-OHDA
  Relative mRNA levels (fold of Control), AADC: 0.268 fold of Control and 0.3023 fold of Control and 0.2821 fold of Control
  Relative mRNA levels (fold of Control), DAT: 0.1919 fold of Control and 0.1982 fold of Control and 0.2381 fold of Control
  Relative mRNA levels (fold of Control), TH: 0.3682 fold of Control and 0.3362 fold of Control and 0.3267 fold of Control
  Relative mRNA levels (fold of Control), VMAT2: 0.2168 fold of Control and 0.2497 fold of Control and 0.2445 fold of Control
  Relative mRNA levels (fold of Control), c-Ret: 0.2351 fold of Control and 0.2454 fold of Control and 0.2588 fold of Control
[2]; Fig. S5h/S5i, without 6-OHDA
  Relative mRNA levels (fold of Control), AADC: 0.385 fold of Control and 0.3813 fold of Control and 0.3915 fold of Control
  Relative mRNA levels (fold of Control), DAT: 0.3184 fold of Control and 0.317 fold of Control and 0.3059 fold of Control
  Relative mRNA levels (fold of Control), TH: 0.5668 fold of Control and 0.4913 fold of Control and 0.5193 fold of Control
  Relative mRNA levels (fold of Control), VMAT2: 0.4847 fold of Control and 0.4471 fold of Control and 0.4495 fold of Control
  Relative mRNA levels (fold of Control), c-Ret: 0.4648 fold of Control and 0.44 fold of Control and 0.4811 fold of Control
[2]
  dopaminergic gene expression (in words): significantly rescued
Nurr1-LBD; Fig. 1f, CQ 100 µM, 4A7C-301 20 µM
  Luciferase activity (fold), Nurr1: 16.1033 fold and 17.0687 fold and 15.1126 fold
Nurr1-LBD; 0.1 µM
  Luciferase activity (fold): 1.566 fold and 1.556 fold and 1.583 fold
Nurr1-LBD; 1 µM
  Luciferase activity (fold): 2.853 fold and 2.913 fold and 2.848 fold
Nurr1-LBD; 10 µM
  Luciferase activity (fold): 8.938 fold and 9.512 fold and 11.2109 fold
Nurr1-LBD; 20 µM
  Luciferase activity (fold): 17.8435 fold and 18.5652 fold and 17.952 fold
Nurr1-LBD; [3]
  EC50: 7 to 8 µM
Nurr1-LBD; Nurr1 activation, Supplementary Table 1
  Maximum fold activity: 18.12 ± 3.02 fold and 18.12 fold
Nurr1-LBD; [4]
  EC50: 6.53 µM
TNFα gene; Conc. 0.0001 µM
  Relative TNFα expression (% of control): 72.3049 % of control and 70.453 % of control and 74.7916 % of control
TNFα gene; Conc. 0.001 µM
  Relative TNFα expression (% of control): 45.7586 % of control and 44.0429 % of control and 42.816 % of control
TNFα gene; Conc. 0.01 µM
  Relative TNFα expression (% of control): 26.6218 % of control and 26.6304 % of control and 26.1645 % of control
TNFα gene; Conc. 0.1 µM
  Relative TNFα expression (% of control): 25.1791 % of control and 23.3247 % of control and 22.8855 % of control
TNFα gene; Conc. 1 µM
  Relative TNFα expression (% of control): 21.147 % of control and 21.3464 % of control and 19.5073 % of control
TNFα gene; suppression of LPS-induced TNFα gene, BV2 cells, read-out: EC50
  EC50: ~0.001 µM

## CCN(CC)CCCC(C)Nc1ccnc2cc(Cl)ccc12 (stereo not drawn) [CQ, chloroquine]
[1]; αSynWT-mice
  phosphorylated αSyn (αSynS129) in SN (in words): significantly diminished
[2]
  dopaminergic gene expression (in words): significantly rescued
Nurr1-LBD; [3]
  EC50: 50 to 70 µM
Nurr1-LBD; [4]
  EC50: 50.2 µM
TNFα gene
  EC50: ~0.1 µM

From paper PMC10354055, “An optimized Nurr1 agonist provides disease-modifying effects in Parkinson’s disease models” (Nature Communications, 2023)
